Data as given in article PMC9141032 (International Journal of Molecular Sciences, 2022).

Tests used:
[1] = Metabolic profiling in mouse liver microsomes (LC-HRMS); type: in vitro ADME
Protocol: (§1) The objective of the study is to evaluate the formation of the main metabolites from B06 in HLM incubations and MLM incubations preceding the in vivo metabolic study, using these same incubations to identify the possible metabolites. […] Reactions without NADPH were also incubated to rule out non-NADPH metabolism or chemical instability in the incubation buffer. Verapamil was included as positive control to monitor incubation course. All reactions were terminated using 60 µL of ice-cold acetonitrile at 0, 5, 15, 30, 45, and 60 min. The plates were centrifugated at 3500 rpm for 15 min. All experiments were conducted in triplicates. Samples were analysed by LC-HMRS in positive ionization mode. Compound incubations without NADPH and compound reference standard were used as interference control for each incubation sample.
Metabolic profiling of B06 in mouse liver microsomes
The equipment used for the analysis wa s an Agilent 1290 Infinity UHPC, ABSciex 5600 QTOF Mass Spectrometer, Metabolite Pilot V 1.5 Sofware.
Method: ionization mode, electrospray positive; acquisition mode, TOF MS with IDA MS/MS; colum, Atlantis T3 C18, 2.1 x 15 mm, 3 μ m; mobile phase, water:acetonitrile: 0.1% formic acid; flow […]
All the tentative identified metabolites have been evaluated using of a score (40 value). This score depend on mass defect, isotope pattern, mass accuracy and MS/MS. In all the cases the score was equal or greater than 68%.
All analytical determinations of B06 were performed in according to the recommendations of the […]
Table S10. Metabolite time course in MLM incubations for B06
Peak Description Time Formula m/z Mass R.T. Peak Area % %
ID incubation error (min) Area Score
1 Safety testing of drug metabolites. Guidance for industry. U.S. Department of Health and Human Services Food and Drug Administration Center for Drug Evaluation and Research (CDER) March 2020 Pharmacology/Toxicology. https://www.fda.gov/regulatory‐information/search‐fda‐guidance‐ documents/safety‐testing‐drug‐metabolites

[2] = Metabolic profiling in human liver microsomes (LC-HRMS); type: in vitro ADME
Protocol: as §1
Metabolic profiling of B06 in human liver microsomes
The equipment used for the analysis was an Agilent 1290 Infinity UHPC, ABSciex 5600 QTOF Mass Spectrometer, Metabolite Pilot V 1.5 Sofware.
Method: ionization mode, electrospray positive; acquisition mode, TOF MS with IDA MS/MS; […]
All the tentative identified metabolites have been evaluated using of a score (40 value). This score depend on mass defect, isotope pattern, mass a ccur a cy and MS/MS. In all the cases the score was equal or greater than 68%.
Table S9. Metabolite time course in HLM incubations for B06
Peak Description Time Formula m/z Mass R.T. Peak % %
ID incubation error (min) Area Area Score […]

SAMP8 murine model = conditions: cited from earlier work
[3] = tested on: imidazoline I2 receptors (I2-IR); set-up: method as in ref 32, 33 = [32]; 32. Escolano C. Pallás M. Griñán-Ferré C. Abás S. Callado L.-F. García-Sevilla J.A. Synthetic I 2 Imidazoline Receptor Ligands for Prevention or Treatment of Human Brain Disorders Patent WO 2019/12185 || [33]; PMID 32150414; doi:10.1021/acs.jmedchem.9b02080; 33. Abás S. Rodríguez-Arévalo S. Bagán A. Griñán-Ferré C. Vasilopoulou F. Brocos-Mosquera I. Muguruza C. Pérez B. Molins E. Luque F.J. Bicyclic α-Iminophosphonates as High Affinity Imidazoline I 2 Rec; conditions: cited from earlier work

CCOP(=O)(O)[C@]1(c2ccccc2)N=C[C@H]2C(=O)N(c3ccc(F)c(Cl)c3)C(=O)[C@H]21 [Compound 1, ethyl hydrogen [(1R,3aS,6aS)-5-(3-chloro-4-fluorophenyl)-4,6-dioxo-1-phenyl-1,3a,4,5,6,6a-hexahydropyrrolo[3,4-c]pyrrol-1-yl]phosphonate]
% Area of metabolite in chromatogram ([1]; MLM incubation of B06, 5 min): 10.7% | % Area of metabolite in chromatogram ([1]; MLM incubation of B06, 15 min): 30.9% | % Area of metabolite in chromatogram ([1]; MLM incubation of B06, 30 min): 60.9% | % Area of metabolite in chromatogram ([1]; MLM incubation of B06, 45 min): 81.6% | % Area of metabolite in chromatogram ([1]; MLM incubation of B06, 60 min): 88.9% | % Area of metabolite in chromatogram ([2]; HLM incubation of B06, 15 min): 8.4% | % Area of metabolite in chromatogram ([2]; HLM incubation of B06, 30 min): 17.8% | % Area of metabolite in chromatogram ([2]; HLM incubation of B06, 45 min): 26.2% | % Area of metabolite in chromatogram ([2]; HLM incubation of B06, 60 min): 36% | % Area of metabolite in chromatogram ([2]; HLM incubation of B06, 60 min, listed as M1): 36.0%

CCOP(=O)(OCC)C1(c2ccccc2)N=CN(Cc2ccc(F)c(Cl)c2)C1(C)C (stereo not shown) [MCR5]
effect on cognition and hallmarks (SAMP8 murine model): cognitive improvement and amelioration of hallmarks

c1ccc2c(c1)OCC(C1=NCCN1)O2 (stereo not shown) [idazoxan]
ratio of I2/α2 ([3]; I2-IR ([3H]2-BFI) versus α2-AR ([3H]RX821002), human frontal cortex): non I2/α2 selectivity | pKi ([3]; membranes of post mortem human frontal cortex, against [3H]2-BFI): 7.41 ± 0.63
